The target in assay [1] is T1, RIPK1 (Homo sapiens, UniProt Q13546).
T1 construct: endogenous in cells; host or cells: HT-29 (KCLB 30038)
T1 sequence (Q13546 1-671): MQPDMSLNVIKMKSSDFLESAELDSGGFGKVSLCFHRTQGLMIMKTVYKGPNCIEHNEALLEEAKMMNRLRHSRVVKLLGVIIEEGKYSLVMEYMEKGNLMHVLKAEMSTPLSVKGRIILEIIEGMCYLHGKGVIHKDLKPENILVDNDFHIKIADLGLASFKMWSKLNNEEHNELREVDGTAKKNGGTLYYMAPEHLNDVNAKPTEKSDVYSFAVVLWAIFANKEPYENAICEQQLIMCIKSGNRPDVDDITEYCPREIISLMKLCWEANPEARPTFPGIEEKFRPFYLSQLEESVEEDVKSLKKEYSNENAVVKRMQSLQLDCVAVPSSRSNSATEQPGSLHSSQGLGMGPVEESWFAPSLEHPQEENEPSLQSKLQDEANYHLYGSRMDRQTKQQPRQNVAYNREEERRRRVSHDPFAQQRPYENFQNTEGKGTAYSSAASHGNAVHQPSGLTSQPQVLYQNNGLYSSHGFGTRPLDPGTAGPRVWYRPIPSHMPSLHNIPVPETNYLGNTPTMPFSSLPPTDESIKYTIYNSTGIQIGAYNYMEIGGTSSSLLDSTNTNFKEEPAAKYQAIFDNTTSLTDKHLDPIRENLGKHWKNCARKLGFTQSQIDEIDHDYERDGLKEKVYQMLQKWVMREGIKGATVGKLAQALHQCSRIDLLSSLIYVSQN
Put plainly: Cell-based necroptosis assay for RIPK1 activity (cell viability by CCK-8). To be noted: HT-29 cells; Z-VAD-FMK 20 μM, human TNFα 10 ng/ml, SM-164 100 nM; 24 h; read-out: Cell-base RIPK1 activity: Necroptosis. A digest of the protocol: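 HT-29 cells pretreated 30 min with 20 μM Z-VAD-FMK, then necroptosis induced with human TNFα 10 ng/ml plus SM-164 100 nM alongside RIPK1 inhibitor (0.0001–10 uM) for 24 h. Viability read by CCK-8.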

For assay [2], the target named is T1, RIPK1. Put plainly: Immunoblotting of TNFα induced phospho-RIPK1 (ser 166) levels. The format is cell-based. The following applies: HMC3 cells; Z-VAD-FMK, human TNFα 20 ng/ml, SM-164 100 nM; 7 h, serum free media; read-out: Cell-base RIPK1 activity: phspho-RIPK1 (Ser166). A digest of the protocol: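 HMC3 human microglial cells were pretreated 30 min with Z-VAD-FMK […]. They were then given TNFα 20 ng/ml, SM-164 100 nM and inhibitor (0.1, 1, 10 nM) for 7 h in serum-free medium. BCA-normalised lysates were immunoblotted for phospho-RIPK1 Ser166.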
For orientation: Immunoblotting shows a protein as a band on a membrane.

For the compound `CN1C(=O)[C@@H](NC(=O)n2cc(Cc3cccc(F)c3)cn2)COc2ccc(OCC(=O)N3CC(O)C3)cc21` [Example 50, (S)-4-(3-fluorobenzyl)-N-(7-(2-(3-hydroxyazetidin-1-yl)-2-oxoethoxy)-5-methyl-4-oxo-2,3,4,5-tetrahydrobenzo[b][1,4]oxazepin-3-yl)-1H-pyrazole-1-carboxamide], the IC50 on RIPK1 [1] and on RIPK1 [2] was less than 10 nM in each case.
As to `CN1C(=O)[C@@H](NC(=O)n2cc(Cc3cccc(F)c3)cn2)COc2ccc(OCC(=O)NC3CC3)cc21` [Example 51, (S)—N-(7-(2-(cyclopropylamino)-2-oxoethoxy)-5-methyl-4-oxo-2,3,4,5-tetrahydrobenzo[b][1,4]oxazepin-3-yl)-4-(3-fluorobenzyl)-1H-pyrazole-1-carboxamide], the IC50 on RIPK1 [1] and at RIPK1 [2] was less than 10 nM throughout.
Take `CCN(CC(C)(C)O)C(=O)COc1ccc2c(c1)N(C)C(=O)[C@@H](NC(=O)n1cc(Cc3cccc(F)c3)cn1)CO2` [Example 53, (S)—N-(7-(2-(ethyl(2-hydroxy-2-methylpropyl)amino)-2-oxoethoxy)-5-methyl-4-oxo-2,3,4,5-tetrahydrobenzo[b][1,4]oxazepin-3-yl)-4-(3-fluorobenzyl)-1H-pyrazole-1-carboxamide]: the IC50 at RIPK1 [1] and on RIPK1 [2] was less than 10 nM in each case.
On to `CN1C(=O)[C@@H](NC(=O)n2cc(Cc3cccc(F)c3)cn2)COc2ccc(OCC(=O)n3cc(O[Si](C)(C)C(C)(C)C)cn3)cc21` [Example 54, (S)—N-(7-(2-(4-((tert-butyldimethylsilyl)oxy)-1H-pyrazol-1-yl)-2-oxoethoxy)-5-methyl-4-oxo-2,3,4,5-tetrahydrobenzo[b][1,4]oxazepin-3-yl)-4-(3-fluorobenzyl)-1H-pyrazole-1-carboxamide], for which the IC50 on RIPK1 [1] and on RIPK1 [2] was 10 to 50 nM each time.
On to `CN1C(=O)[C@@H](NC(=O)n2cc(Cc3cccc(F)c3)cn2)COc2ccc(OCC3CCOCC3)cc21` [Example 55, (S)-4-(3-fluorobenzyl)-N-(5-methyl-4-oxo-7-((tetrahydro-2H-pyran-4-yl)methoxy)-2,3,4,5-tetrahydrobenzo[b][1,4]oxazepin-3-yl)-1H-pyrazole-1-carboxamide], for which the IC50 at RIPK1 [1] and at RIPK1 [2] was less than 10 nM each time.
As to `CN1C(=O)[C@@H](NC(=O)n2cc(Cc3cccc(F)c3)cn2)COc2ccc(OCc3ccccc3)cc21` [Example 56, (S)—N-(7-(benzyloxy)-5-methyl-4-oxo-2,3,4,5-tetrahydrobenzo[b][1,4]oxazepin-3-yl)-4-(3-fluorobenzyl)-1H-pyrazole-1-carboxamide], the IC50 at RIPK1 [1] and at RIPK1 [2] was less than 10 nM in each case.
For `CN1C(=O)[C@@H](NC(=O)n2cc(Cc3cccc(F)c3)cn2)COc2ccc(OCc3ccc(F)cc3)cc21` [Example 57, (S)-4-(3-fluorobenzyl)-N-(7-((4-fluorobenzyl)oxy)-5-methyl-4-oxo-2,3,4,5-tetrahydrobenzo[b][1,4]oxazepin-3-yl)-1H-pyrazole-1-carboxamide], the IC50 at RIPK1 [1] and on RIPK1 [2] was less than 10 nM throughout.
Consider `CN1C(=O)[C@@H](NC(=O)n2cc(Cc3cccc(F)c3)cn2)COc2ccc(OCc3ccc(F)cn3)cc21` [Example 58, (S)-4-(3-fluorobenzyl)-N-(7-((5-fluoropyridin-2-yl)methoxy)-5-methyl-4-oxo-2,3,4,5-tetrahydrobenzo[b][1,4]oxazepin-3-yl)-1H-pyrazole-1-carboxamide], for which the IC50 on RIPK1 [1] and on RIPK1 [2] was less than 10 nM each time.
Consider `CN1C(=O)[C@@H](NC(=O)n2cc(Cc3cccc(F)c3)cn2)COc2ccc(OCc3ccc(F)nc3)cc21` [Example 59, (S)-4-(3-fluorobenzyl)-N-(7-((6-fluoropyridin-3-yl)methoxy)-5-methyl-4-oxo-2,3,4,5-tetrahydrobenzo[b][1,4]oxazepin-3-yl)-1H-pyrazole-1-carboxamide], for which the IC50 on RIPK1 [1] and on RIPK1 [2] was less than 10 nM each time.
With `CN1C(=O)[C@@H](NC(=O)n2cc(Cc3cccc(F)c3)cn2)COc2ccc(OCc3ccnc(F)c3)cc21` [Example 60, (S)-4-(3-fluorobenzyl)-N-(7-((2-fluoropyridin-4-yl)methoxy)-5-methyl-4-oxo-2,3,4,5-tetrahydrobenzo[b][1,4]oxazepin-3-yl)-1H-pyrazole-1-carboxamide], the IC50 on RIPK1 [1] and at RIPK1 [2] was less than 10 nM in each case.
As for `COc1cc(COc2ccc3c(c2)N(C)C(=O)[C@@H](NC(=O)n2cc(Cc4cccc(F)c4)cn2)CO3)ccn1` [Example 61, (S)-4-(3-fluorobenzyl)-N-(7-((2-methoxypyridin-4-yl)methoxy)-5-methyl-4-oxo-2,3,4,5-tetrahydrobenzo[b][1,4]oxazepin-3-yl)-1H-pyrazole-1-carboxamide], the IC50 on RIPK1 [1] and at RIPK1 [2] was less than 10 nM throughout.
Consider `CN1C(=O)[C@@H](NC(=O)n2cc(Cc3cccc(F)c3)cn2)COc2ccc(OCc3cnc(Cl)nc3)cc21` [Example 62, (S)—N-(7-((2-chloropyrimidin-5-yl)methoxy)-5-methyl-4-oxo-2,3,4,5-tetrahydrobenzo[b][1,4]oxazepin-3-yl)-4-(3-fluorobenzyl)-1H-pyrazole-1-carboxamide], for which the IC50 on RIPK1 [1] and on RIPK1 [2] was less than 10 nM in each case.
Regarding `CN1C(=O)[C@@H](NC(=O)n2cc(Cc3cccc(F)c3)cn2)COc2ccc(OCc3nccn3C)cc21` [Example 63, (S)-4-(3-fluorobenzyl)-N-(5-methyl-7-((1-methyl-1H-imidazol-2-yl)methoxy)-4-oxo-2,3,4,5-tetrahydrobenzo[b][1,4]oxazepin-3-yl)-1H-pyrazole-1-carboxamide], the IC50 on RIPK1 [1] and on RIPK1 [2] was less than 10 nM throughout.
With `Cc1nnc(COc2ccc3c(c2)N(C)C(=O)[C@@H](NC(=O)n2cc(Cc4cccc(F)c4)cn2)CO3)o1` [Example 64, (S)-4-(3-fluorobenzyl)-N-(5-methyl-7-((5-methyl-1,3,4-oxadiazol-2-yl)methoxy)-4-oxo-2,3,4,5-tetrahydrobenzo[b][1,4]oxazepin-3-yl)-1H-pyrazole-1-carboxamide], the IC50 on RIPK1 [1] and at RIPK1 [2] was 10 to 50 nM each time.
Regarding `COC(=O)c1csc(COc2ccc3c(c2)N(C)C(=O)[C@@H](NC(=O)n2cc(Cc4cccc(F)c4)cn2)CO3)n1` [Example 65, Methyl (S)-2-(((3-(4-(3-fluorobenzyl)-1H-pyrazole-1-carboxamido)-5-methyl-4-oxo-2,3,4,5-tetrahydrobenzo[b][1,4]oxazepin-7-yl)oxy)methyl)thiazole-4-carboxylate], the IC50 at RIPK1 [1] and at RIPK1 [2] was less than 10 nM each time.
On to `CN1C(=O)[C@@H](NC(=O)n2cc(Cc3cccc(F)c3)cn2)COc2ccc(OCc3nc(C(C)(C)O)cs3)cc21` [Example 66, (S)-4-(3-fluorobenzyl)-N-(7-((4-(2-hydroxypropan-2-yl)thiazol-2-yl)methoxy)-5-methyl-4-oxo-2,3,4,5-tetrahydrobenzo[b][1,4]oxazepin-3-yl)-1H-pyrazole-1-carboxamide], for which the IC50 on RIPK1 [1] and on RIPK1 [2] was less than 10 nM throughout.
In the case of `Cc1noc(C)c1COc1ccc2c(c1)N(C)C(=O)[C@@H](NC(=O)n1cc(Cc3cccc(F)c3)cn1)CO2` [Example 67, (S)—N-(7-((3,5-dimethylisoxazol-4-yl)methoxy)-5-methyl-4-oxo-2,3,4,5-tetrahydrobenzo[b][1,4]oxazepin-3-yl)-4-(3-fluorobenzyl)-1H-pyrazole-1-carboxamide], the IC50 at RIPK1 [1] and on RIPK1 [2] was less than 10 nM each time.
As to `CN1C(=O)[C@@H](NC(=O)n2cc(Cc3cccc(F)c3)cn2)COc2ccc(OCc3cn(CC(C)(C)O)nn3)cc21` [Example 68, (S)-4-(3-fluorobenzyl)-N-(7-((1-(2-hydroxy-2-methylpropyl)-1H-1,2,3-triazol-4-yl)methoxy)-5-methyl-4-oxo-2,3,4,5-tetrahydrobenzo[b][1,4]oxazepin-3-yl)-1H-pyrazole-1-carboxamide], the IC50 on RIPK1 [1] and on RIPK1 [2] was less than 10 nM each time.
Turning to `CN1C(=O)[C@@H](NC(=O)n2cc(Cc3cccc(F)c3)cn2)COc2ccc(OCC(O)c3ccccn3)cc21` (stereo partly drawn) [Example 69, 4-(3-fluorobenzyl)-N-((3S)-7-(2-hydroxy-2-(pyridin-2-yl)ethoxy)-5-methyl-4-oxo-2,3,4,5-tetrahydrobenzo[b][1,4]oxazepin-3-yl)-1H-pyrazole-1-carboxamide], the IC50 on RIPK1 [1] and at RIPK1 [2] was less than 10 nM throughout.
